Results on 32 compounds are retold here after patent publication US20260265265A1, “NOVEL BENZIMIDAZOLONE DERIVATIVE COMPOUND AS AUTOTAXIN INHIBITOR” (LG CHEM, LTD., priority 2023, published 2026).

For the experiment, the target named is T1, Recombinant Human ENPP-2/Autotaxin (Homo sapiens, UniProt Q13822).
T1 construct: purchased R&D systems 5255-EN
Nature of the experiment: LysoPLD activity measurement (autotaxin enzyme inhibition, choline release, TOOS reagent). The note with it: LysoPLD inhibitory activity; substrate 14:0 LysoPC; absorbance at 555 nm. In kind it is biochemical. As for the experimental part:
Such a measurement method is a method of measuring the amount of choline, which is a reaction product in an autotaxin enzyme reaction, using a TOOS reagent. Depending on the activity of the autotaxin inhibitor, the amount of choline produced as a reaction product varies, which affects the final absorbance.
After 30 min, 14:0 LysoPC of the substrate diluted to a concentration of 300 μM with the enzyme reaction buffer solution was dispensed into each well by 50 μL and allowed to stand at 37° C. for 90 minutes. At this time, negative control wells were dispensed with 1% DMSO, substrate, and autotaxin instead of the compound, and positive control wells were dispensed with 1% DMSO and substrate.
What is called IC50 is the concentration that inhibits the measured activity by half. Consider `O=C(O)c1cccc(Cn2c(=O)n(-c3ccccc3)c3cc(Cl)ccc32)c1` [Example 1, 3-((5-chloro-2-oxo-3-phenyl-2,3-dihydro-1H-benzo[d]imidazol-1-yl)methyl)benzoic acid], for which the IC50 is 0.1 to 1 µM.
Turning to `CCCc1ccc(-n2c(=O)n(Cc3cccc(C(=O)O)c3)c3ccc(Cl)cc32)cc1` [Example 2, 3-((5-chloro-2-oxo-3-(4-propylphenyl)-2,3-dihydro-1H-benzo[d]imidazol-1-yl)methyl)benzoic acid], the IC50 was in the range of 0.1 to 1 µM.
For `O=C(O)c1cccc(Cn2c(=O)n(-c3ccc(F)cc3)c3cc(Cl)ccc32)c1` [Example 3, 3-((5-chloro-3-(4-fluorophenyl)-2-oxo-2,3-dihydro-1H-benzo[d]imidazol-1-yl)methyl)benzoic acid] the value was 0.1 to 1 µM; for `O=C(O)c1cccc(Cn2c(=O)n(-c3ccc(C(F)(F)F)cc3)c3cc(Cl)ccc32)c1` [Example 4, 3-((5-chloro-2-oxo-3-(4-(trifluoromethyl)phenyl)-2,3-dihydro-1H-benzo[d]imidazol-1-yl)methyl)benzoic acid], 0.1 to 1 µM.
In the case of `COc1ccc(-n2c(=O)n(Cc3cccc(C(=O)O)c3)c3ccc(Cl)cc32)cc1` [Example 5, 3-((5-chloro-3-(4-methoxyphenyl)-2-oxo-2,3-dihydro-1H-benzo[d]imidazol-1-yl)methyl)benzoic acid], the IC50 fell in the range of 0.01 to 0.1 µM.
Turning to `O=C(O)c1cccc(Cn2c(=O)n(-c3ccc(-c4ccc(Cl)cc4)cc3)c3cc(Cl)ccc32)c1` [Example 7, 3-((5-chloro-3-(4′-chloro-[1,1′-biphenyl]-4-yl)-2-oxo-2,3-dihydro-1H-benzo[d]imidazol-1-yl)methyl)benzoic acid], the IC50 lay within 0.1 to 1 µM.
Consider `Cc1ccc(-n2c(=O)n(Cc3cccc(C(=O)O)c3)c3ccc(Cl)cc32)cc1` [Example 8, 3-((5-chloro-2-oxo-3-(p-tolyl)-2,3-dihydro-1H-benzo[d]imidazol-1-yl)methyl)benzoic acid], for which the IC50 lay in the range of 0.1 to 1 µM.
With `O=C(O)c1cccc(Cn2c(=O)n(-c3ccc4c(c3)OCO4)c3cc(Cl)ccc32)c1` [Example 9, 3-((3-(benzo[d][1,3]dioxol-5-yl)-5-chloro-2-oxo-2,3-dihydro-1H-benzo[d]imidazol-1-yl)methyl)benzoic acid] the figure was 0.1 to 1 µM.
With `CN(C)c1ccc(-n2c(=O)n(Cc3cccc(C(=O)O)c3)c3ccc(Cl)cc32)cc1` [Example 10, 3-((5-chloro-3-(4-(dimethylamino)phenyl)-2-oxo-2,3-dihydro-1H-benzo[d]imidazol-1-yl)methyl)benzoic acid], the IC50 is 0.01 to 0.1 µM.
As to `CC(C)C(=O)Nc1ccc(-n2c(=O)n(Cc3cccc(C(=O)O)c3)c3ccc(Cl)cc32)cc1` [Example 11, 3-((5-chloro-3-(4-isobutyramidophenyl)-2-oxo-2,3-dihydro-1H-benzo[d]imidazol-1-yl)methyl)benzoic acid], the IC50 lay within 0.1 to 1 µM.
With `CC(C)(C)c1ccc(-n2c(=O)n(Cc3cccc(C(=O)O)c3)c3ccc(Cl)cc32)cc1` [Example 12, 3-((3-(4-(tert-butyl)phenyl)-5-chloro-2-oxo-2,3-dihydro-1H-benzo[d]imidazol-1-yl)methyl)benzoic acid], the IC50 was in the range of 0.1 to 1 µM.
As to `O=C(O)c1cccc(Cn2c(=O)n(-c3ccc(O)cc3)c3cc(Cl)ccc32)c1` [Example 13, 3-((5-chloro-3-(4-hydroxyphenyl)-2-oxo-2,3-dihydro-1H-benzo[d]imidazol-1-yl)methyl)benzoic acid], the IC50 was in the range of 0.1 to 1 µM.
For the compound `CC(C)Oc1ccc(-n2c(=O)n(Cc3cccc(C(=O)O)c3)c3ccc(Cl)cc32)cc1` [Example 14, 3-((5-chloro-3-(4-isopropoxyphenyl)-2-oxo-2,3-dihydro-1H-benzo[d]imidazol-1-yl)methyl)benzoic acid], the IC50 was 0.01 to 0.1 µM.
As for `O=C(O)c1cccc(Cn2c(=O)n(-c3ccc(-c4ccccc4)cc3)c3cc(Cl)ccc32)c1` [Example 15, 3-((3-([1,1′-biphenyl]-4-yl)-5-chloro-2-oxo-2,3-dihydro-1H-benzo[d]imidazol-1-yl)methyl)benzoic acid], the IC50 lay within 0.1 to 1 µM.
In the case of `CCCCc1ccc(-n2c(=O)n(Cc3cccc(C(=O)O)c3)c3ccc(Cl)cc32)cc1` [Example 16, 3-((3-(4-butylphenyl)-5-chloro-2-oxo-2,3-dihydro-1H-benzo[d]imidazol-1-yl)methyl)benzoic acid], the IC50 is 0.1 to 1 µM.
Turning to `CC(C)c1ccc(-n2c(=O)n(Cc3cccc(C(=O)O)c3)c3ccc(Cl)cc32)cc1` [Example 17, 3-((5-chloro-3-(4-isopropylphenyl)-2-oxo-2,3-dihydro-1H-benzo[d]imidazol-1-yl)methyl)benzoic acid], the IC50 fell in the range of 0.1 to 1 µM.
Regarding `CC(C)(O)c1ccc(-n2c(=O)n(Cc3cccc(C(=O)O)c3)c3ccc(Cl)cc32)cc1` [Example 18, 3-((5-chloro-3-(4-(2-hydroxypropan-2-yl)phenyl)-2-oxo-2,3-dihydro-1H-benzo[d]imidazol-1-yl)methyl)benzoic acid], the IC50 lay in the range of 0.01 to 0.1 µM.
On to `CS(=O)(=O)Nc1ccc(-n2c(=O)n(Cc3cccc(C(=O)O)c3)c3ccc(Cl)cc32)cc1` [Example 19, 3-((5-chloro-3-(4-(methylsulfonamido)phenyl)-2-oxo-2,3-dihydro-1H-benzo[d]imidazol-1-yl)methyl)benzoic acid], for which the IC50 was 0.01 to 0.1 µM.
For the compound `CCOc1ccc(-n2c(=O)n(Cc3cccc(C(=O)O)c3)c3ccc(Cl)cc32)cc1` [Example 20, 3-((5-chloro-3-(4-ethoxyphenyl)-2-oxo-2,3-dihydro-1H-benzo[d]imidazol-1-yl)methyl)benzoic acid], the IC50 lay in the range of 0.01 to 0.1 µM.
Turning to `CN(C)C(=O)c1ccc(-n2c(=O)n(Cc3cccc(C(=O)O)c3)c3ccc(Cl)cc32)cc1` [Example 21, 3-((5-chloro-3-(4-(dimethylcarbamoyl)phenyl)-2-oxo-2,3-dihydro-1H-benzo[d]imidazol-1-yl)methyl)benzoic acid], the IC50 is under 0.01 µM.
Consider `CNC(=O)c1ccc(-n2c(=O)n(Cc3cccc(C(=O)O)c3)c3ccc(Cl)cc32)cc1` [Example 22, 3-((5-chloro-3-(4-(methylcarbamoyl)phenyl)-2-oxo-2,3-dihydro-1H-benzo[d]imidazol-1-yl)methyl)benzoic acid], for which the IC50 was 0.01 to 0.1 µM.
For `O=C(O)c1cccc(Cn2c(=O)n(-c3ccc(C(=O)NCC(F)(F)F)cc3)c3cc(Cl)ccc32)c1` [Example 23, 3-((5-chloro-2-oxo-3-(4-((2,2,2-trifluoroethyl)carbamoyl)phenyl)-2,3-dihydro-1H-benzo[d]imidazol-1-yl)methyl)benzoic acid] the value was 0.1 to 1 µM; for `O=C(O)c1cccc(Cn2c(=O)n(-c3ccc(N4CCOCC4)cc3)c3c(F)c(Cl)ccc32)c1` [Example 24, 3-((5-chloro-4-fluoro-3-(4-morpholinophenyl)-2-oxo-2,3-dihydro-1H-benzo[d]imidazol-1-yl)methyl)benzoic acid], 0.01 to 0.1 µM.
`CN(C)c1ccc(-n2c(=O)n(Cc3cccc(C(=O)O)c3)c3ccc(Cl)c(F)c32)cc1` [Example 25, 3-((5-chloro-3-(4-(dimethylamino)phenyl)-4-fluoro-2-oxo-2,3-dihydro-1H-benzo[d]imidazol-1-yl)methyl)benzoic acid]: the IC50 lay within 0.01 to 0.1 µM.
In the case of `O=C(O)c1cccc(Cn2c(=O)n(-c3ccc(NS(=O)(=O)CC(F)(F)F)cc3)c3cc(Cl)ccc32)c1` [Example 26, 3-((5-chloro-2-oxo-3-(4-((2,2,2-trifluoroethyl)sulfonamido)phenyl)-2,3-dihydro-1H-benzo[d]imidazol-1-yl)methyl)benzoic acid], the IC50 was in the range of 0.1 to 1 µM.
Take `O=C(O)c1cccc(Cn2c(=O)n(-c3ccc(OCC4CCC4)cc3)c3cc(Cl)ccc32)c1` [Example 27, 3-((5-chloro-3-(4-(cyclobutylmethoxy)phenyl)-2-oxo-2,3-dihydro-1H-benzo[d]imidazol-1-yl)methyl)benzoic acid]: the IC50 fell in the range of 0.1 to 1 µM.
For `O=C(O)c1cccc(Cn2c(=O)n(-c3ccc(N4CCCCC4=O)cc3)c3cc(Cl)ccc32)c1` [Example 28, 3-((5-chloro-2-oxo-3-(4-(2-oxopiperidin-1-yl)phenyl)-2,3-dihydro-1H-benzo[d]imidazol-1-yl)methyl)benzoic acid] the value was 0.01 to 0.1 µM.
As for `O=C(O)c1cccc(Cn2c(=O)n(-c3ccc(N4CCCC4)cc3)c3cc(Cl)ccc32)c1` [Example 29, 3-((5-chloro-2-oxo-3-(4-(pyrrolidin-1-yl)phenyl)-2,3-dihydro-1H-benzo[d]imidazol-1-yl)methyl)benzoic acid], the IC50 is 0.01 to 0.1 µM.
With `O=C(O)c1cccc(Cn2c(=O)n(-c3ccc(OCC4CCC4)c(F)c3)c3cc(Cl)ccc32)c1` [Example 30, 3-((5-chloro-3-(4-(cyclobutylmethoxy)-3-fluorophenyl)-2-oxo-2,3-dihydro-1H-benzo[d]imidazol-1-yl)methyl)benzoic acid], the IC50 was in the range of 0.1 to 1 µM.
On to `CCCc1ccc(-n2c(=O)n(C3(c4cccc(C(=O)O)c4)CC3)c3ccc(Cl)cc32)cc1` [Example 31, 3-(1-(5-chloro-2-oxo-3-(4-propylphenyl)-2,3-dihydro-1H-benzo[d]imidazol-1-yl)cyclopropyl)benzoic acid], for which the IC50 was 0.01 to 0.1 µM.
In the case of `O=C(O)c1ccc(F)c(Cn2c(=O)n(-c3ccccc3)c3cc(Cl)ccc32)c1` [Example 32, 3-((5-chloro-2-oxo-3-phenyl-2,3-dihydro-1H-benzo[d]imidazol-1-yl)methyl)-4-fluorobenzoic acid], the IC50 was in the range of 0.1 to 1 µM.
Take `O=C(O)c1cccc(Cn2c(=O)n(-c3ccccc3)c3cc(Cl)ccc32)c1F` [Example 33, 3-((5-chloro-2-oxo-3-phenyl-2,3-dihydro-1H-benzo[d]imidazol-1-yl)methyl)-2-fluorobenzoic acid]: the IC50 was 0.1 to 1 µM.
